Source: patent US10844077B2, “Thiazolyl-containing compounds for treating proliferative diseases” (Dana-Farber Cancer Institute, Inc., priority 2014, dated 2020)
“And” between values parts separate entries of the source, which are not always exact repeats. Equal entries are not always repeated.

target: LYN (Homo sapiens (Human), UniProt P07948); experiment: KINATIV assay; assay type: cell-based; details: 1 μM, 90 minutes, BCWM.1 cells
Procedure, shortened: (§1)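 Duplicate compound samples were compared with duplicate or quadruplicate controls. After harvesting and lysis, cells' lysates were probe-labeled (ATP-biotin), and kinase labeling was quantitated by ACTIVX.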

LYN, sequence (P07948 whole entry): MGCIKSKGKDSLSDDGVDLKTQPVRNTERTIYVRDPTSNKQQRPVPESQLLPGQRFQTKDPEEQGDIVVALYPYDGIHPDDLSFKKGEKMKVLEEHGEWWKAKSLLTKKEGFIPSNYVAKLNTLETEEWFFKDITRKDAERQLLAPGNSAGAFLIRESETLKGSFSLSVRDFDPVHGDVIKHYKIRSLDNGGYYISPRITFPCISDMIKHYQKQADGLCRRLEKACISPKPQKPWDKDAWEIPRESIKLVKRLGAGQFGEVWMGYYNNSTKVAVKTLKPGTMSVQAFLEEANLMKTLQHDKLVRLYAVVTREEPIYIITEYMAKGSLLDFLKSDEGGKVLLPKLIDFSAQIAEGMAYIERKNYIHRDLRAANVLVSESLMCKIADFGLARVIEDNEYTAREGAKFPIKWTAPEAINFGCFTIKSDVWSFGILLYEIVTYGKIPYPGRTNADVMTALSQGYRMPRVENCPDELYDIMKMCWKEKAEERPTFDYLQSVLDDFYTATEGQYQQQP

Row | SMILES | % change of MS signal compared to control sample
1 | C=CC(=O)N1CCCCC(Nc2nccc(Nc3ncc(C(=O)Nc4c(C)cccc4C)s3)n2)C1 (stereo not drawn) [Example I-7] | >97% and >90%

target: RSK3 domain1 (Homo sapiens (Human), UniProt Q15349); experiment: KINATIV assay; assay type: cell-based; details: 1 μM, 90 minutes, BCWM.1 cells
Procedure, shortened: as §1

Row | SMILES | % change of MS signal compared to control sample [%]
2 | C=CC(=O)N1CCCCC(Nc2nccc(Nc3ncc(C(=O)Nc4c(C)cccc4C)s3)n2)C1 (stereo not drawn) [Example I-7] | −48.6

target: NEK8 (Homo sapiens (Human), UniProt Q86SG6); experiment: KINATIV assay; assay type: cell-based; details: 1 μM, 90 minutes, BCWM.1 cells
Procedure, shortened: as §1

Row | SMILES | % change of MS signal compared to control sample [%]
3 | C=CC(=O)N1CCCCC(Nc2nccc(Nc3ncc(C(=O)Nc4c(C)cccc4C)s3)n2)C1 (stereo not drawn) [Example I-7] | 12.2

target: MELK (Homo sapiens (Human), UniProt Q14680); experiment: KINATIV assay; assay type: cell-based; details: 1 μM, 90 minutes, BCWM.1 cells
Procedure, shortened: as §1

Row | SMILES | % change of MS signal compared to control sample [%]
4 | C=CC(=O)N1CCCCC(Nc2nccc(Nc3ncc(C(=O)Nc4c(C)cccc4C)s3)n2)C1 (stereo not drawn) [Example I-7] | −11.0

target: LCK (Homo sapiens (Human), UniProt P06239); experiment: KINATIV assay; assay type: cell-based; details: 1 μM, 90 minutes, BCWM.1 cells
Procedure, shortened: as §1

Row | SMILES | % change of MS signal compared to control sample [%]
5 | C=CC(=O)N1CCCCC(Nc2nccc(Nc3ncc(C(=O)Nc4c(C)cccc4C)s3)n2)C1 (stereo not drawn) [Example I-7] | 96.5

target: LATS2 (Homo sapiens (Human), UniProt Q9NRM7); experiment: KINATIV assay; assay type: cell-based; details: 1 μM, 90 minutes, BCWM.1 cells
Procedure, shortened: as §1

LATS2, sequence (Q9NRM7 whole entry): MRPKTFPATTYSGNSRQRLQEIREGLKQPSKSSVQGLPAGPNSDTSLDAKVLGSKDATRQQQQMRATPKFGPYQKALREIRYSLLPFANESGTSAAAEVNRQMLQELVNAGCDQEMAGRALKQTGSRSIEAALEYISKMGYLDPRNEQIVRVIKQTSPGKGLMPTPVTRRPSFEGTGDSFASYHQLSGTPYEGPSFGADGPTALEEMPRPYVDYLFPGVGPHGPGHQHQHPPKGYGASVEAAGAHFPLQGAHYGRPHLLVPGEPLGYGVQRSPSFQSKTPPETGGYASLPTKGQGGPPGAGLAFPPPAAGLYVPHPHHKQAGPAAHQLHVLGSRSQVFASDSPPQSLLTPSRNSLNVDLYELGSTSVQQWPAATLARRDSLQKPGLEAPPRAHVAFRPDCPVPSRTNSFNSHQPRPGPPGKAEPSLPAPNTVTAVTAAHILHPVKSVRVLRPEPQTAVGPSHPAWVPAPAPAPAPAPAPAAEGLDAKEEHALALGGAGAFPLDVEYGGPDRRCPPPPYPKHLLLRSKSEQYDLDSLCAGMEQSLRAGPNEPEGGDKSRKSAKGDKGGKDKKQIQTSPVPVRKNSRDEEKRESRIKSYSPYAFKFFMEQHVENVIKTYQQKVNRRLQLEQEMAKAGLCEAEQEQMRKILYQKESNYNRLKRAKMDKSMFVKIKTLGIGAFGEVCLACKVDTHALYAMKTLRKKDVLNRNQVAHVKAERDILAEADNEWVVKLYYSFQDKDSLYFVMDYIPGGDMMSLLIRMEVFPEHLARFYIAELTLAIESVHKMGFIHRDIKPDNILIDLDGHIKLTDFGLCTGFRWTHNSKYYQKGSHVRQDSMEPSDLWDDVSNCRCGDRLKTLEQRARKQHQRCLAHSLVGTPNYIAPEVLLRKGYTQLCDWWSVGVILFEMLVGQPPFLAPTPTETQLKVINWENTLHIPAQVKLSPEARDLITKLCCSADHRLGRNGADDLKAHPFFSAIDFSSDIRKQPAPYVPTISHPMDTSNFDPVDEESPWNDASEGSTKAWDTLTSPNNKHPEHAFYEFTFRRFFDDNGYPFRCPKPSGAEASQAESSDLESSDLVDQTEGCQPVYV

Row | SMILES | % change of MS signal compared to control sample [%]
6 | C=CC(=O)N1CCCCC(Nc2nccc(Nc3ncc(C(=O)Nc4c(C)cccc4C)s3)n2)C1 (stereo not drawn) [Example I-7] | −6.6

tested on: ABL, ARG; experiment: KINATIV assay; assay type: cell-based; details: 1 μM, 90 minutes, BCWM.1 cells
Procedure, shortened: as §1

Row | SMILES | % change of MS signal compared to control sample
7 | C=CC(=O)N1CCCCC(Nc2nccc(Nc3ncc(C(=O)Nc4c(C)cccc4C)s3)n2)C1 (stereo not drawn) [Example I-7] | >90% and >97%

target: STLK6 (Homo sapiens (Human), UniProt Q9C0K7); experiment: KINATIV assay; assay type: cell-based; details: 1 μM, 90 minutes, BCWM.1 cells
Procedure, shortened: as §1

STLK6, sequence (Q9C0K7 whole entry): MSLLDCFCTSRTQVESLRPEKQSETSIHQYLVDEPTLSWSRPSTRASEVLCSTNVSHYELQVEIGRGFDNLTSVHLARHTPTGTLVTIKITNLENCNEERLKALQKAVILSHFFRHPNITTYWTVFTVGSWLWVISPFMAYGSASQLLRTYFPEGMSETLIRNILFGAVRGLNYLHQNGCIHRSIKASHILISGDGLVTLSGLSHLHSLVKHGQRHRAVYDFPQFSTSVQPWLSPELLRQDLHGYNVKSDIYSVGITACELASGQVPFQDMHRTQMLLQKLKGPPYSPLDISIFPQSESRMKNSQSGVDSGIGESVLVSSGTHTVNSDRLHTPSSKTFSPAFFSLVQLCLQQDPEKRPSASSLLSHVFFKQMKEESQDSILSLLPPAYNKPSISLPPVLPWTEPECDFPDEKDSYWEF

Row | SMILES | % change of MS signal compared to control sample [%]
8 | C=CC(=O)N1CCCCC(Nc2nccc(Nc3ncc(C(=O)Nc4c(C)cccc4C)s3)n2)C1 (stereo not drawn) [Example I-7] | −16.3

target: RSK1 domain2 (Homo sapiens (Human), UniProt Q15418); experiment: KINATIV assay; assay type: cell-based; details: 1 μM, 90 minutes, BCWM.1 cells
Procedure, shortened: as §1

Row | SMILES | % change of MS signal compared to control sample [%]
9 | C=CC(=O)N1CCCCC(Nc2nccc(Nc3ncc(C(=O)Nc4c(C)cccc4C)s3)n2)C1 (stereo not drawn) [Example I-7] | 4.9

tested on: ZC1/HGK, ZC2/TNIK, ZC3/MINK; experiment: KINATIV assay; assay type: cell-based; details: 1 μM, 90 minutes, BCWM.1 cells
Procedure, shortened: as §1

Row | SMILES | % change of MS signal compared to control sample [%]
10 | C=CC(=O)N1CCCCC(Nc2nccc(Nc3ncc(C(=O)Nc4c(C)cccc4C)s3)n2)C1 (stereo not drawn) [Example I-7] | 6.2

target: MASTL (Homo sapiens (Human), UniProt Q96GX5); experiment: KINATIV assay; assay type: cell-based; details: 1 μM, 90 minutes, BCWM.1 cells
Procedure, shortened: as §1

MASTL, sequence (Q96GX5 whole entry): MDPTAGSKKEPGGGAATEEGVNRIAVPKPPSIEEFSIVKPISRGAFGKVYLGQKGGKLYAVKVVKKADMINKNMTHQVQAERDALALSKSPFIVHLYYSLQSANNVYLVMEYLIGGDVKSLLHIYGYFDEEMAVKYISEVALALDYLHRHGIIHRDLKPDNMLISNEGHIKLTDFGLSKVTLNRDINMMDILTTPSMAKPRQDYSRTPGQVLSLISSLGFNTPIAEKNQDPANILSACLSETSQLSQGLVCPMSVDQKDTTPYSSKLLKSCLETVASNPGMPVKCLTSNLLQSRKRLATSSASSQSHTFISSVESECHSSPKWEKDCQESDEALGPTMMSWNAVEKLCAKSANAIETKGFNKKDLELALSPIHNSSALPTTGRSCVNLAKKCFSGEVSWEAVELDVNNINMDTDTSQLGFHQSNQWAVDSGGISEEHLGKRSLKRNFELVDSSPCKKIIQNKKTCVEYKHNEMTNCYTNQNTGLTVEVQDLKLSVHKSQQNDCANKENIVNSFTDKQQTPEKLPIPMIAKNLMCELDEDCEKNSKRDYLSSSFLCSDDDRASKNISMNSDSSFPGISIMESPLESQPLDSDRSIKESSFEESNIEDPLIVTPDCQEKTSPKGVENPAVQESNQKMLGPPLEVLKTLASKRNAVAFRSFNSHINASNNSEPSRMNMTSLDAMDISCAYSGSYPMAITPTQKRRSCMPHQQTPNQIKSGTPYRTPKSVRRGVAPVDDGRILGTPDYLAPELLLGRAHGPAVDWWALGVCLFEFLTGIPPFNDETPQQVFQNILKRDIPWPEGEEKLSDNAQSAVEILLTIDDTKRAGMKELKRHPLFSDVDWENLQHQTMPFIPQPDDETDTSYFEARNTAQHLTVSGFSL

Row | SMILES | % change of MS signal compared to control sample
11 | C=CC(=O)N1CCCCC(Nc2nccc(Nc3ncc(C(=O)Nc4c(C)cccc4C)s3)n2)C1 (stereo not drawn) [Example I-7] | −10.9% and −13.8%

target: IKKa (Homo sapiens (Human), UniProt O15111); experiment: KINATIV assay; assay type: cell-based; details: 1 μM, 90 minutes, BCWM.1 cells
Procedure, shortened: as §1

Row | SMILES | % change of MS signal compared to control sample [%]
12 | C=CC(=O)N1CCCCC(Nc2nccc(Nc3ncc(C(=O)Nc4c(C)cccc4C)s3)n2)C1 (stereo not drawn) [Example I-7] | −3.5

target: MAP3K4 (Homo sapiens (Human), UniProt Q9Y6R4); experiment: KINATIV assay; assay type: cell-based; details: 1 μM, 90 minutes, BCWM.1 cells
Procedure, shortened: as §1

Row | SMILES | % change of MS signal compared to control sample [%]
13 | C=CC(=O)N1CCCCC(Nc2nccc(Nc3ncc(C(=O)Nc4c(C)cccc4C)s3)n2)C1 (stereo not drawn) [Example I-7] | −24.2

tested on: MARK1, MARK2; experiment: KINATIV assay; assay type: cell-based; details: 1 μM, 90 minutes, BCWM.1 cells
Procedure, shortened: as §1

Row | SMILES | % change of MS signal compared to control sample [%]
14 | C=CC(=O)N1CCCCC(Nc2nccc(Nc3ncc(C(=O)Nc4c(C)cccc4C)s3)n2)C1 (stereo not drawn) [Example I-7] | 7.9

target: IRAK1 (Homo sapiens (Human), UniProt P51617); experiment: KINATIV assay; assay type: cell-based; details: 1 μM, 90 minutes, BCWM.1 cells
Procedure, shortened: as §1

Row | SMILES | % change of MS signal compared to control sample [%]
15 | C=CC(=O)N1CCCCC(Nc2nccc(Nc3ncc(C(=O)Nc4c(C)cccc4C)s3)n2)C1 (stereo not drawn) [Example I-7] | 19.0

target: PHKg2 (Homo sapiens (Human), UniProt P15735); experiment: KINATIV assay; assay type: cell-based; details: 1 μM, 90 minutes, BCWM.1 cells
Procedure, shortened: as §1

PHKg2, sequence (P15735 whole entry): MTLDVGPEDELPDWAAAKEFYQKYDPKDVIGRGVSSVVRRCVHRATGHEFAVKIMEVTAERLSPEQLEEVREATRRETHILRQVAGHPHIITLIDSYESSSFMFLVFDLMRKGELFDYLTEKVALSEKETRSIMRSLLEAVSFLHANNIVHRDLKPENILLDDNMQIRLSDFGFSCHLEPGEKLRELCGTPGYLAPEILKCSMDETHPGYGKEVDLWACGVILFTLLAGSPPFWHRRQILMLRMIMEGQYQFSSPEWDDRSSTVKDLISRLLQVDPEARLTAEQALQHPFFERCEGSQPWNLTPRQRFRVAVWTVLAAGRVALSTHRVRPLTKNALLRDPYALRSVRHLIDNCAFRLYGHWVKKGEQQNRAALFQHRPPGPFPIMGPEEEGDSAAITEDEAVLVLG

Row | SMILES | % change of MS signal compared to control sample [%]
16 | C=CC(=O)N1CCCCC(Nc2nccc(Nc3ncc(C(=O)Nc4c(C)cccc4C)s3)n2)C1 (stereo not drawn) [Example I-7] | 0.6

target: MST2 (Homo sapiens (Human), UniProt Q13188); experiment: KINATIV assay; assay type: cell-based; details: 1 μM, 90 minutes, BCWM.1 cells
Procedure, shortened: as §1

Row | SMILES | % change of MS signal compared to control sample [%]
17 | C=CC(=O)N1CCCCC(Nc2nccc(Nc3ncc(C(=O)Nc4c(C)cccc4C)s3)n2)C1 (stereo not drawn) [Example I-7] | 6.5

target: PIK3CG (Homo sapiens (Human), UniProt P48736); experiment: KINATIV assay; assay type: cell-based; details: 1 μM, 90 minutes, BCWM.1 cells
Procedure, shortened: as §1

Row | SMILES | % change of MS signal compared to control sample [%]
18 | C=CC(=O)N1CCCCC(Nc2nccc(Nc3ncc(C(=O)Nc4c(C)cccc4C)s3)n2)C1 (stereo not drawn) [Example I-7] | −51.9

target: TYK2 domain2 (Homo sapiens (Human), UniProt P29597); experiment: KINATIV assay; assay type: cell-based; details: 1 μM, 90 minutes, BCWM.1 cells
Procedure, shortened: as §1

Row | SMILES | % change of MS signal compared to control sample [%]
19 | C=CC(=O)N1CCCCC(Nc2nccc(Nc3ncc(C(=O)Nc4c(C)cccc4C)s3)n2)C1 (stereo not drawn) [Example I-7] | −46.4

tested on: MAP3K2, MAP3K3; experiment: KINATIV assay; assay type: cell-based; details: 1 μM, 90 minutes, BCWM.1 cells
Procedure, shortened: as §1

Row | SMILES | % change of MS signal compared to control sample [%]
20 | C=CC(=O)N1CCCCC(Nc2nccc(Nc3ncc(C(=O)Nc4c(C)cccc4C)s3)n2)C1 (stereo not drawn) [Example I-7] | 15.6

target: GCN2 (Homo sapiens (Human), UniProt Q9P2K8); experiment: KINATIV assay; assay type: cell-based; details: 1 μM, 90 minutes, BCWM.1 cells
Procedure, shortened: as §1

GCN2, sequence (Q9P2K8 whole entry): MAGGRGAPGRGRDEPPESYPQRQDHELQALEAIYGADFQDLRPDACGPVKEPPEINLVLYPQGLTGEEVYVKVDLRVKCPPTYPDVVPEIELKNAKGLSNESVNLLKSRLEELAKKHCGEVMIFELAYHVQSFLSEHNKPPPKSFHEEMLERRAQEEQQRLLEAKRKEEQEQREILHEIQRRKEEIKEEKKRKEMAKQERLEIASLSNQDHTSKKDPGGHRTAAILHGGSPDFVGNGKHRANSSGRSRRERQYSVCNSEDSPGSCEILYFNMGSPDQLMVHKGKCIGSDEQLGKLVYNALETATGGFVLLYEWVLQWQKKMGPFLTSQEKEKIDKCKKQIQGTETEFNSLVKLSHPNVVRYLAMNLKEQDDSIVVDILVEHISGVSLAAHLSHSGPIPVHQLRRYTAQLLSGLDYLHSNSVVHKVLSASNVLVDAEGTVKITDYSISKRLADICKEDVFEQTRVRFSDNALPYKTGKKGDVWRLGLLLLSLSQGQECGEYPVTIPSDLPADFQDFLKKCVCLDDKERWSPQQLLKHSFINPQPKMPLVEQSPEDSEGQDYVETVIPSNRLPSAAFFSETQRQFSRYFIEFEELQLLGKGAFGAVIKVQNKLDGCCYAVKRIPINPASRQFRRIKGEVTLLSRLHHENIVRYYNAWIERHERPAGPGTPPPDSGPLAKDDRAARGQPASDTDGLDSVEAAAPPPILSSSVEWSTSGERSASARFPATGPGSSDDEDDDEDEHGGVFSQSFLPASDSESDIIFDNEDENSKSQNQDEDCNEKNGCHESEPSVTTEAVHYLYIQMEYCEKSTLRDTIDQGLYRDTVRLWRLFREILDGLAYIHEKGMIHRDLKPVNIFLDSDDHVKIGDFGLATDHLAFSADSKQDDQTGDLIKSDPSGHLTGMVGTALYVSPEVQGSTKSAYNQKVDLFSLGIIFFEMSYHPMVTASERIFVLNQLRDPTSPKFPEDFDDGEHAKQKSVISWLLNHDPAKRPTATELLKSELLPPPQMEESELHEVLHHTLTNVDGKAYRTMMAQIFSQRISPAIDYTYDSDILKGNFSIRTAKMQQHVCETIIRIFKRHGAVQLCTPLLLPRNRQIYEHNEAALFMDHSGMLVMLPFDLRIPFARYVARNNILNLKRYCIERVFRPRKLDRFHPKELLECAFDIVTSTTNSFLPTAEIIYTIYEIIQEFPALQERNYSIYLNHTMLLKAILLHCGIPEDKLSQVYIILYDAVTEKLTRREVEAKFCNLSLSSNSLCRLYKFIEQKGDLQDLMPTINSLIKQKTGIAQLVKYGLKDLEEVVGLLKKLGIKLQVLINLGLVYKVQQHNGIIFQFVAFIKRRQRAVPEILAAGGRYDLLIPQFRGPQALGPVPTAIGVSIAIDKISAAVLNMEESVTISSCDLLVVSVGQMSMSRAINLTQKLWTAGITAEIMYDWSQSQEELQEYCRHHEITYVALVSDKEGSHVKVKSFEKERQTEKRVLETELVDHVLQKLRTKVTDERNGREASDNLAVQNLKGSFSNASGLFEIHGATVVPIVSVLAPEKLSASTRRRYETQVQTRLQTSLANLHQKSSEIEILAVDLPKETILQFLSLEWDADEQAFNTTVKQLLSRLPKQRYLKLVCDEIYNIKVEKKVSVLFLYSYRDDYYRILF

Row | SMILES | % change of MS signal compared to control sample
21 | C=CC(=O)N1CCCCC(Nc2nccc(Nc3ncc(C(=O)Nc4c(C)cccc4C)s3)n2)C1 (stereo not drawn) [Example I-7] | −13.3% and −6.3%
